Laboratory results from patent US8575091B1, “Amylin analogues and pharmaceutical compositions thereof” (Novo Nordisk A/S, priority 2012, dated 2013).
Numbered stars: 1 amine (or outer) side, 2 acyl side, 3 side chain; on linkers, the order of the positions; unused ones are H or OH. Bridge positions count the residues as written; N and C are the ends. Side chains are listed from the residue outwards. Peptide text beside a SMILES is read from it. * marks the point of attachment. C20 diacid = O=C(O)CCCCCCCCCCCCCCCCCCC(=O)*; γGlu = O=C(O)[C@H](CCC(=O)[*:2])N[*:1]; AEEA = NCCOCCOCC(=O)O

How the values were obtained:
[1] = biological target: T1, human amylin receptor (amylin 3(a) receptor: human calcitonin receptor + RAMP-3) (Homo sapiens, UniProt O60896+P30988); experiment: Assay (II)a functional assay, human amylin receptor (CRE luciferase, BHK cells); assay type: cell-based
T1 construct: expressed in transfected cells
T1 sequence (P30988 25-474): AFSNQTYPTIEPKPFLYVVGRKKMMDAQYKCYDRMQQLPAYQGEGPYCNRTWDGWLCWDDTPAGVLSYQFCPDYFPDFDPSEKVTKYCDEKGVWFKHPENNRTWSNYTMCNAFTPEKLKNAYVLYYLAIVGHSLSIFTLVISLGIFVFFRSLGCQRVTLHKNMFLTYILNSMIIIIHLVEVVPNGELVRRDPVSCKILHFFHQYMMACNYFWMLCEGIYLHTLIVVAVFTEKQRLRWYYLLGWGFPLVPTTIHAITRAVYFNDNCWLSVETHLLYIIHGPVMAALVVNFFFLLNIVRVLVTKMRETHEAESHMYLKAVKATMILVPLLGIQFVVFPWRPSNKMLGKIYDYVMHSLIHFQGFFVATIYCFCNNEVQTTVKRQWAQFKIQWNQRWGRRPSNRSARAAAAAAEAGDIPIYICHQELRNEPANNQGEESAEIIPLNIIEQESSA
T1 sequence (O60896 24-148 partner): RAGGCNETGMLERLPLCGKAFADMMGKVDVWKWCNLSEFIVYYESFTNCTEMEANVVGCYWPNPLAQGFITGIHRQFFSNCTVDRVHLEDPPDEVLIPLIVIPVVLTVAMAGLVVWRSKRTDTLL

[2] = Assay (III) ThT fibrillation assay for physical stability; assay type: physicochemical
Excerpt: Assay (III)—ThT Fibrillation Assays for the Assessment of Physical Stability of Protein Formulations Low physical stability of a polypeptide may lead to amyloid fibril formation, which is observed as well-ordered, thread-like macromolecular structures in the sample eventually resulting in gel formation. This has traditionally been measured by visual inspection of the sample. However, that kind of measurement is very subjective and depending on the observer. Therefore, the application of a small molecule indicator probe is much more advantageous. Thioflavin T (ThT) is such a probe and has a distinct fluorescence signature when binding to fibrils [Naiki et al. (1989) Anal. […] LeVine (1999) Methods. Enzymol. […], 274-284]. The time course for fibril formation can be described by a sigmoidal curve with the following expression [Nielsen et al. (2001) Biochemistry 40, 6036-6046]: […] Here, F is the ThT fluorescence at the time t. The constant t0 is the time needed to reach 50% of maximum fluorescence. […] Incubation and Fluorescence Measurement Incubation at given temperature, shaking and measurement of the ThT fluorescence emission were done in a Fluoroskan Ascent FL fluorescence platereader or Varioskan platereader (Thermo Labsystems). […] Fluorescence measurement was done using excitation through a 444 nm filter and measurement of emission through a 485 nm filter. […] The plate was measured every 20 minutes for a desired period of time. […] However, since full sigmodial curves in this case are not always achieved during the measurement time, the degree of fibrillation is expressed as ThT fluorescence tabulated as the mean of the samples and shown with the standard deviation at various time points. Measurement of Initial and Final Concentrations The polypeptide concentration in each of the tested formulations were measured both before application in the ThT fibrillation assay (“Initial”) and after completion of the ThT fibrillation (“After ThT assay”). Concentrations were determined by reverse HPLC methods using a pramlintide standard as a reference. […]

human amylin receptor = biological target: T2, human amylin receptor (Homo sapiens, UniProt O60896+P30988); experiment: Assay (V) binding to the human amylin receptor (SPA, 125I-rat amylin); conditions: human amylin receptor membranes, SPA; read-out: hAmylin-R bind IC50
T2 construct: expressed in transfected cells
T2 sequence (P30988 25-474): T1 sequence (P30988 25-474)
T2 sequence (O60896 24-148 partner): T1 sequence (O60896 24-148 partner)
Method in brief: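 SPA competition binding on membranes from Amylin 3(a)/CRE-luc cells, 35 ng/μL membranes with 0.05 mg/well beads. Buffer 50 mM Hepes pH 7.4, 1 mM CaCl2, 5 mM MgCl2, 0.1% OA, 0.02% Tween20. IC50 from one-site competition fit as affinity measure.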

[3] = biological target: T3, human calcitonin receptor (Homo sapiens, UniProt P30988); experiment: Assay (VII) binding to the human calcitonin receptor (SPA, 125I-Calcitonin); conditions: read-out: hCTR bind IC50;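 note: cell membranes coupled to SPA beads, competitive displacement read by scintillation counting, IC50 derived from a one-site competition fit as a measure of receptor affinity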
T3 construct: expressed in transfected cells
T3 sequence (P30988 25-474): T1 sequence (P30988 25-474)

[4] = biological target: T3, human calcitonin receptor; experiment: Assay (II)a functional assay, human calcitonin receptor (CRE luciferase, BHK cells);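 note: luminescence from a CRE-driven luciferase reporter, read by single photon counting after cells were exposed to test samples for 3 h at 37 °C under 5% CO2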; assay type: cell-based; conditions: read-out: hCTR funct. EC50

| SMILES | Ratio hCT/hAmylin funct. ([1]; Table 6, human functional selectivity (hCTR EC50 / hAmylin-R EC50)) | ThT pH 4.0 recovery (%) [2] | IC50 (human amylin receptor) | IC50 [3] | EC50 ([1]; functional assay, human amylin receptor, read-out: hAmylin-R funct. EC50) | EC50 [4] |
| --- | --- | --- | --- | --- | --- | --- |
| CC[C@H](C)[C@H](NC(=O)[C@H](C)NC(=O)CNC(=O)[C@H](Cc1ccccc1)NC(=O)[C@H](CC(N)=O)NC(=O)[C@@H]1CCCN1C(=O)[C@H](CO)NC(=O)[C@H](CO)NC(=O)[C@H](Cc1c[nH]cn1)NC(=O)[C@H](CCCNC(=N)N)NC(=O)[C@H](CC(C)C)NC(=O)[C@H](Cc1ccccc1)NC(=O)[C@H](C)NC(=O)[C@H](C)NC(=O)[C@H](CC(C)C)NC(=O)[C@H](CCCNC(=N)N)NC(=O)[C@H](CCC(N)=O)NC(=O)[C@@H](NC(=O)[C@H](C)NC(=O)[C@@H]1CSSC[C@H](NC(=O)[C@H](CCCNC(=N)N)NC(=O)CNC(=O)CC[C@H](NC(=O)CCCCCCCCCCCCCCCCCCC(=O)O)C(=O)O)C(=O)N[C@@H](CC(N)=O)C(=O)N[C@@H]([C@@H](C)O)C(=O)N[C@@H](C)C(=O)N[C@@H]([C@@H](C)O)C(=O)N1)[C@@H](C)O)C(=O)N1CCC[C@H]1C(=O)N[C@@H](CO)C(=O)N[C@@H](CO)C(=O)N[C@H](C(=O)N[C@@H](CC(N)=O)C(=O)N[C@H](C(=O)NCC(=O)N1CCC[C@H]1C(=O)N[C@@H](CC(N)=O)C(=O)N[C@H](C(=O)N[C@@H](Cc1ccc(O)cc1)C(N)=O)[C@@H](C)O)C(C)C)[C@@H](C)O [Example 103] ({C20 diacid-γGlu}-GRCNTATCATQRLAAFLRHSSPNFGAIPSSTNVGPNTY-NH2; disulfide 3-8 (inferred); C-terminus assumed) | 2.1 | 82% |  |  |  |  |
| CC[C@H](C)[C@H](NC(=O)[C@H](C)NC(=O)CNC(=O)[C@H](Cc1ccccc1)NC(=O)[C@H](CC(N)=O)NC(=O)[C@@H]1CCCN1C(=O)[C@H](CO)NC(=O)[C@H](CO)NC(=O)[C@H](Cc1c[nH]cn1)NC(=O)[C@H](CCCNC(=N)N)NC(=O)[C@H](CC(C)C)NC(=O)[C@H](Cc1ccccc1)NC(=O)[C@H](CO)NC(=O)[C@H](C)NC(=O)[C@H](CC(C)C)NC(=O)[C@H](CCCNC(=N)N)NC(=O)[C@H](CCC(N)=O)NC(=O)[C@@H](NC(=O)[C@H](C)NC(=O)[C@@H]1CSSC[C@H](NC(=O)[C@@H](N)CCCCNC(=O)COCCOCCNC(=O)CC[C@H](NC(=O)CCCCCCCCCCCCCCCCCCC(=O)O)C(=O)O)C(=O)N[C@@H](CC(N)=O)C(=O)N[C@@H]([C@@H](C)O)C(=O)N[C@@H](C)C(=O)N[C@@H]([C@@H](C)O)C(=O)N1)[C@@H](C)O)C(=O)N1CCC[C@H]1C(=O)N[C@@H](CO)C(=O)N[C@@H](CO)C(=O)N[C@H](C(=O)N1CCC[C@H]1C(=O)N[C@H](C(=O)NCC(=O)N[C@@H](CO)C(=O)N[C@@H](CC(N)=O)C(=O)N[C@H](C(=O)N[C@@H](Cc1ccc(O)cc1)C(N)=O)[C@@H](C)O)C(C)C)[C@@H](C)O [Example 73] (H-K([AEEA-γGlu-C20 diacid])CNTATCATQRLASFLRHSSPNFGAIPSSTPVGSNTY-NH2; disulfide 2-7) |  | 1% | 0.104 nM | 5.38 nM | 0.085 nM | 0.961 nM |
| CC[C@H](C)[C@H](NC(=O)[C@H](C)NC(=O)CNC(=O)[C@H](Cc1ccccc1)NC(=O)[C@H](CC(N)=O)NC(=O)[C@@H]1CCCN1C(=O)[C@H](CO)NC(=O)[C@H](CO)NC(=O)[C@H](Cc1c[nH]cn1)NC(=O)[C@H](CCCNC(=N)N)NC(=O)[C@H](CC(C)C)NC(=O)[C@H](Cc1ccccc1)NC(=O)[C@H](CCCCN)NC(=O)[C@H](C)NC(=O)[C@H](CC(C)C)NC(=O)[C@H](CCCNC(=N)N)NC(=O)[C@H](CCC(N)=O)NC(=O)[C@@H](NC(=O)[C@H](C)NC(=O)[C@@H]1CSSC[C@H](NC(=O)[C@@H](N)CCCCNC(=O)COCCOCCNC(=O)CC[C@H](NC(=O)CCCCCCCCCCCCCCCCCCC(=O)O)C(=O)O)C(=O)N[C@@H](CC(N)=O)C(=O)N[C@@H]([C@@H](C)O)C(=O)N[C@@H](C)C(=O)N[C@@H]([C@@H](C)O)C(=O)N1)[C@@H](C)O)C(=O)N1CCC[C@H]1C(=O)N[C@@H](CO)C(=O)N[C@@H](CO)C(=O)N[C@H](C(=O)N1CCC[C@H]1C(=O)N[C@H](C(=O)NCC(=O)N[C@@H](CO)C(=O)N[C@@H](CC(N)=O)C(=O)N[C@H](C(=O)N[C@@H](Cc1ccc(O)cc1)C(N)=O)[C@@H](C)O)C(C)C)[C@@H](C)O [Example 74] (H-K([AEEA-γGlu-C20 diacid])CNTATCATQRLAKFLRHSSPNFGAIPSSTPVGSNTY-NH2; disulfide 2-7 (inferred); N-terminus and C-terminus assumed) |  | 87% |  |  |  |  |
